This is an account of results in patent publication US11285136B2, “Nanoparticles for controlled release of Sorafenib and Sorafenib derivatives” (DISTRETTO TECNOLOGICO SICILIA MICRO NANO SISTEMI S.C.A.R.L., priority 2017, dated 2022).

Entries after “also recorded” stand apart in the source; their conditions may differ.

The IC50 is the concentration needed to halve the response being measured. Low readings indicate greater potency, high ones weaker potency.

Data set [1] relates to HepG2. Kind of data set: Cell viability assay (CellTiter) on HepG2 cells. Format: cell-based, human. The method, then: (§1) The human hepatocellular carcinoma cell lines, HepG2 and Hep3B, were obtained from the American Type Culture Collection (ATCC). Cells were kept in 5% CO2 and grown in Roswell Park Memorial Institute (RPMI) medium (SIGMA, Milan, Italy), supplemented with 10% (v/v) fetal bovine serum (FBS) (Gibco, Life Technologies, Monza MB, Italy), 2 mM L-glutamine, 100 U/ml of penicillin-streptomycin and 1 mM of sodium pyruvate (SIGMA, Milan, Italy). Cell lines were regularly checked for possible mycoplasma contamination.
(§2) The latter were resuspended in sterile conditions in sterile H2O, sonicated for 20 min in a water sonicator, and diluted with a complete RPMI volume (2×). At the end of the treatment, cell viability assays were performed using the OneSolution aqueous CellTiter kit (Promega Corporation, Madison, Wis., USA). The percentage of cell viability was calculated with reference to the absorbance measured in the control cells. The experiments were performed in triplicate and the values expressed as mean±SD of three independent experiments.

The test system of data set [2] is Hep3B. Kind of data set: Cell viability assay (CellTiter) on Hep3B cells. Type of data set: cell-based, human. The settings on record: 72 hours. Here is the method: as §1, §2
A short description of data set [3]: In vitro release of Sorafenib, dialysis tube method. Type of data set: physicochemical. The settings on record: SGF, SIF and PBS, 37° C. The method, then: During the experiment, the temperature was maintained at 37° C. in a thermostatic stirrer and with stirring of 100 rpm. At scheduled time intervals, 1 ml aliquots were taken from the external medium and replaced with an equal volume of fresh receiving medium. The released Sorafenib was quantified by HPLC analysis. Each in vitro release experiment was repeated in triplicate.
A control experiment was also carried out to determine the dissolution of the free drug: an appropriate amount of Sorafenib was dispersed in the receiving medium, in order to have a final concentration of Sorafenib equal to that present in the nanoparticles, the dispersion was then introduced into a dialysis tube (cut-off 12000-14000 Da) which was immersed in a container containing the receiving medium. The amount of Sorafenib in the receiving medium was detected by HPLC analysis.
The amount of released Sorafenib was expressed as a percentage ratio between the released drug weight and the total amount of Sorafenib loaded into the nanoparticles. […] The cumulative release of Sorafenib in 24 hours was about 63% in SIF (panel B) and about 55% in PBS (panel C).

Data set [4] has as its system Hep3B hepatocellular carcinoma. Kind of data set: Hep3B xenograft in nude mice, therapeutic efficacy. Format: in vivo. Particulars: 10 mg/kg daily (6 days/week), 17 days, FIG. 5A. Here is the method:
(§3) Male nude mice (fox1 nu/nu) of 4 weeks of life were purchased at Envigo (Udine, Italy) and left to acclimatize for 1 week. Hep3B cells (10×10^6 in 0.2 ml PBS), undergoing logarithmic growth, were inoculated in the right flank of the animals. When the tumors were palpable (about 300 mm^3), the mice were randomly divided into four groups of five animals each, with the various tumor volumes equally distributed between the four groups. Each group was treated for 17 days as indicated below.
Group 1: daily treatment (6 days/week) by intraperitoneal (IP) injection with 10 mg/kg of Sorafenib tosylate resuspended in DMSO and further diluted in a 25% solution of ethanol (DMSO-EtOH).
Group 2: carrier only (DMSO-EtOH).
Group 4: daily treatment (6 days/week) with 10 mg/kg of empty PBB nanoparticles resuspended in RPMI.
To quantify the Ki-67 cell proliferation marker expression, the ImmunoRatio® software (http://jvsmicroscope.uta.fi/immunoratio/) was used which, using a color deconvolution algorithm, calculates the percentage of positively marked area (area stained with diaminobenzidine) towards the total nuclear area. The hematoxylin stains were also acquired to analyze the neo-vascularization of the tumor, using the Leica DMR microscope equipped with a Leica DFC 320 digital camera.

Data set [5] in a line: Body weight and mobility of treated xenograft mice. Format: in vivo, nude mice. Particulars: 10 mg/kg daily (6 days/week), 17 days, FIG. 5B. Here is the method: as §3
For data set [6] the following is noted: cited from earlier work.
The conditions of data set [7]: oral tablets, strong first-pass effect; cited from earlier work.
A short description of data set [8]: Biodistribution of Sorafenib in tissues of treated mice. Particulars: compared with Sorafenib PBB, p<0.01, FIG. 6.
Procedure: The lyophilized nanoparticle samples were resuspended and sonicated as reported in cell viability assays. Tumor volumes and body weight were recorded twice a week as previously described (Cusimano et al., Cytotoxic activity of the novel small molecule AKT inhibitor SC66 in hepatocellular carcinoma cells. Oncotarget 2015, 6, 1707-1722). The mice were sacrificed by cervical dislocation when the tumor mass exceeded 10% of the body weight of the animals, or when the tumor mass appeared ulcerated or other morbid conditions were found, in accordance with the institutional guidelines and in accordance with the national law (Legislative Decree No. 26 4-3-2014) and international laws and policies (ECC Council Directive 86/609, OJ L358.1, Dec. 12, 1987). […] At the end of the trial, tumors, liver, kidneys, lungs and spleen were collected from each animal. Half of each tumor, or organ, was frozen in liquid nitrogen and stored at −80° C. for biodistribution analyzes, while the other half was fixated in formalin and used for immunohistochemistry analysis.
Sorafenib was extracted from the tissues of the treated animals following the procedure described in Craparo E F et al. Galactosylated polymeric carriers for liver targeting of Sorafenib. […]

For the compound `CNC(=O)c1cc(Oc2ccc(NC(=O)Nc3ccc(Cl)c(C(F)(F)F)c3)cc2)ccn1` [Sorafenib, 4-[4-[[4-chloro-3-(trifluoromethyl)phenyl]carbamoylamino]phenoxy]-N-methyl-pyridine-2-carboxamide], the cell viability entry in data set [1] (HepG2, 0.6-10 μM, 72 hours, FIG. 3) is listed as “strongly decreased in a dose-dependent manner”; in data set [2] (0.6-10 μM, FIG. 3), “strongly decreased in a dose-dependent manner”. Besides, the IC50 in data set [1] (Homo sapiens, HepG2, 72 hours, mean ± DS) turned out to be 5.5 ± 1 µM; in data set [2] (Homo sapiens, mean ± DS), 3.5 ± 0.5 µM. For the same compound, the “dissolution of free drug” value in data set [3] is “almost complete within two hours”. The tumor growth result in data set [4] is listed as “reduced tumor growth compared to the carrier alone, although this difference was not significant”. Besides, the body weight result in data set [5] is recorded as “did not show a significant loss of body weight”. In addition, in data set [6], the solubility in water entry is “slightly soluble; also recorded: poorly soluble”. The bioavailability result in data set [7] was “low”. Further, the “amount of Sorafenib detected in the lungs” value in data set [8] is given as “significantly higher”.
